In patent US20220089575A1, “FARNESOID X RECEPTOR AGONISTS AND USES THEREOF” (Metacrine, Inc., priority 2017, published 2022):

Target: T1, hFXR (Homo sapiens, UniProt Q96RI1)
T1 construct: expressed in transfected cells; host or cells: CV-1 cells
T1 sequence (Q96RI1 1-486): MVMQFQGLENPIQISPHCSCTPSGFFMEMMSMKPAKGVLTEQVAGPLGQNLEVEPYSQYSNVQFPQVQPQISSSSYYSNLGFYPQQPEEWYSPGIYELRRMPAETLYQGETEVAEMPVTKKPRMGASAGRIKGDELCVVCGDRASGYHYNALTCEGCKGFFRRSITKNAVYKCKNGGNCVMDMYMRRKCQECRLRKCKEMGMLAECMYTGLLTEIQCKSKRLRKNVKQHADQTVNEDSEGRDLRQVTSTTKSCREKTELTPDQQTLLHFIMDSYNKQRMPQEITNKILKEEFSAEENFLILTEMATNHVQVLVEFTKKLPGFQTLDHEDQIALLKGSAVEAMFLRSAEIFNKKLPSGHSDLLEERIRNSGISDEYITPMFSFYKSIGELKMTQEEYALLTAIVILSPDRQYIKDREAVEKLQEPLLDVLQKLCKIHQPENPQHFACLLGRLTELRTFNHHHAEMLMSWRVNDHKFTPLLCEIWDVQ
T1 sequence (P19793 1-462 partner): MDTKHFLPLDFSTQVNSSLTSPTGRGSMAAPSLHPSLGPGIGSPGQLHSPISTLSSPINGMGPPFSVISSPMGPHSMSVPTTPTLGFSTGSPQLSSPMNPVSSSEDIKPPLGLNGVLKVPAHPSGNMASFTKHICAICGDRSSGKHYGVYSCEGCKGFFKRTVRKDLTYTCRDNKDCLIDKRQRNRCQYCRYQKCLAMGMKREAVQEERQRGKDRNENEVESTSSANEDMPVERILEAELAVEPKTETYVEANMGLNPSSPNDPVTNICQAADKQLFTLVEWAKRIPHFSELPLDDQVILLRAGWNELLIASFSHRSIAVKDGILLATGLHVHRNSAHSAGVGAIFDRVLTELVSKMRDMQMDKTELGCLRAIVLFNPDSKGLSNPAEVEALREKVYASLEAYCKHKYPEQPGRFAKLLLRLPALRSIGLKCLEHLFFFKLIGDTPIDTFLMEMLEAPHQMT
Experiment: In Vitro FXR Assay (TK): TK-ECRE-luc reporter in transfected CV-1 cells
Type: cell-based
Conditions: 18 hrs, luminescence, maximum efficacy of <25% of the Fexarmine control classified as '+'
Summary of the method: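 Cells are seeded in charcoal double-stripped FBS medium, transfected overnight with FXR/RXR expression and ECRE-driven luciferase reporter plasmids, then treated with serially diluted compounds for 18 h. Lysates are measured for luciferase light output.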

Row | Compound | EC50
1 | COc1ccc([C@H]2CC[C@H](CN(c3cc(-c4coc(C5CC5)n4)ccn3)C(=O)[C@H]3CC[C@H](CNC(=O)C4CCC4)CC3)CC2)nc1C [Compound 30.04, trans-4-(Cyclobutanecarboxamidomethyl)-N-(4-(2-cyclopropyloxazol-4-yl)pyridin-2-yl)-N-((trans-4-(5-methoxy-6-methylpyridin-2-yl)cyclohexyl)methyl) cyclohexanecarboxamide] | ≤ 0.25 µM
2 | COc1ccc([C@H]2CC[C@H](CN(c3cccc(-c4cnn(C5CC5)c4)c3)C(=O)[C@H]3CC[C@H](NC(=O)CNC(C)=O)CC3)CC2)cc1C [Compound 31.01, trans-4-(2-Acetamidoacetamido)-N-(3-(1-cyclopropyl-1H-pyrazol-4-yl)phenyl)-N-((trans-4-(4-methoxy-3-methylphenyl)cyclohexyl)methyl)cyclohexanecarboxamide] | ≥ 1 µM
3 | COc1ccc([C@H]2CC[C@H](CN(c3cccc(-c4cnn(C5CC5)c4)c3)C(=O)[C@H]3CC[C@H](NC(=O)CNS(C)(=O)=O)CC3)CC2)cc1C [Compound 31.03, trans-N-(3-(1-Cyclopropyl-1H-pyrazol-4-yl)phenyl)-N-((trans-4-(4-methoxy-3-methylphenyl)cyclohexyl)methyl)-4-(2-(methylsulfonamido)acetamido) cyclohexane carboxamide] | ≥ 1 µM
4 | COc1ccc([C@H]2CC[C@H](CN(c3cccc(-c4cnc(C5CC5)s4)c3)C(=O)[C@H]3CC[C@H](NC(=O)CN(C)C)CC3)CC2)cc1C [Compound 31.06, trans-N-(3-(2-Cyclopropylthiazol-5-yl)phenyl)-4-(2-(dimethylamino)acetamido)-N-((trans-4-(4-methoxy-3-methylphenyl)cyclohexyl)methyl)cyclohexanecarboxamide] | ≤ 0.25 µM
5 | COc1ccc([C@H]2CC[C@H](CN(c3cccc(-c4cnc(C5CC5)s4)c3)C(=O)[C@H]3CC[C@H](NC(=O)CNC(C)=O)CC3)CC2)cc1C [Compound 31.09, trans-4-(2-Acetamidoacetamido)-N-(3-(2-cyclopropylthiazol-5-yl)phenyl)-N-((trans-4-(4-methoxy-3-methylphenyl)cyclohexyl)methyl)cyclohexanecarboxamide] | ≤ 0.25 µM
6 | COc1ccc([C@H]2CC[C@H](CN(c3cccc(-c4cnc(C5CC5)s4)c3)C(=O)[C@H]3CC[C@H](NC(=O)CSC)CC3)CC2)cc1C [Compound 31.10, trans-N-(3-(2-Cyclopropylthiazol-5-yl)phenyl)-N-((trans-4-(4-methoxy-3-methylphenyl)cyclohexyl)methyl)-4-(2-(methylthio)acetamido) cyclohexanecarboxamide] | ≤ 0.25 µM
7 | COc1ccc([C@H]2CC[C@H](CN(c3cccc(-c4cnc(C5CC5)s4)c3)C(=O)[C@H]3CC[C@H](NC(=O)C[S+](C)[O-])CC3)CC2)cc1C (stereo partly drawn) [Compound 31.11, trans-N-(3-(2-Cyclopropylthiazol-5-yl)phenyl)-N-((trans-4-(4-methoxy-3-methylphenyl)cyclohexyl)methyl)-4-(2-(methylsulfinyl)acetamido) cyclohexanecarboxamide] | ≤ 0.25 µM
8 | COc1ccc([C@H]2CC[C@H](CN(c3cccc(-c4cnc(C5CC5)s4)c3)C(=O)[C@H]3CC[C@H](NC(=O)CCS(C)(=O)=O)CC3)CC2)cc1C [Compound 31.14, trans-N-(3-(2-Cyclopropylthiazol-5-yl)phenyl)-N-((trans-4-(4-methoxy-3-methylphenyl)cyclohexyl)methyl)-4-(3-(methylsulfonyl)propanamido) cyclohexanecarboxamide] | ≤ 0.25 µM
9 | COc1ccc([C@H]2CC[C@H](CN(c3cccc(-c4cnc(C5CC5)s4)c3)C(=O)[C@H]3CC[C@H](NC(=O)Cc4c[nH]cn4)CC3)CC2)cc1C [Compound 31.15, trans-4-(2-(1H-Imidazol-4-yl)acetamido)-N-(3-(2-cyclopropylthiazol-5-yl)phenyl)-N-((trans-4-(4-methoxy-3-methylphenyl)cyclohexyl)methyl) cyclohexanecarboxamide] | ≤ 0.25 µM
10 | COc1ccc([C@H]2CC[C@H](CN(c3cccc(-c4cnn(C5CC5)c4)c3)C(=O)[C@H]3CC[C@H](NC(=O)COCCCO)CC3)CC2)cc1C [Compound 32, trans-N-(3-(1-Cyclopropyl-1H-pyrazol-4-yl)phenyl)-4-(2-(3-hydroxypropoxy)acetamido)-N-((trans-4-(4-methoxy-3-methylphenyl)cyclohexyl)methyl)cyclohexanecarboxamide] | ≤ 0.25 µM

The next lines start with the values.

Row | EC50 | Compound
11 | ≥ 1 µM | COc1ccc([C@H]2CC[C@H](CN(c3cc(-c4coc(C5CC5)n4)ccn3)C(=O)[C@H]3CC[C@H](CNC(=O)C4CC(N(C)C)C4)CC3)CC2)nc1C (stereo partly drawn) [Compound 30.05, trans-N-(4-(2-Cyclopropyloxazol-4-yl)pyridin-2-yl)-4-((3-(dimethylamino)cyclobutanecarboxamido)methyl)-N-((trans-4-(5-methoxy-6-methylpyridin-2-yl)cyclohexyl)methyl) cyclohexanecarboxamide]
12 | ≤ 0.25 µM | COc1ccc([C@H]2CC[C@H](CN(c3cccc(-c4cnc(C5CC5)s4)c3)C(=O)[C@H]3CC[C@H](NC(=O)CNS(C)(=O)=O)CC3)CC2)cc1C [Compound 30.06, trans-N-(3-(2-Cyclopropylthiazol-5-yl)phenyl)-N-((trans-4-(4-methoxy-3-methylphenyl)cyclohexyl)methyl)-4-(2-(methylsulfonamido)acetamido) cyclohexanecarboxamide]
13 | ≤ 0.25 µM | COC(=O)NCC(=O)N[C@H]1CC[C@H](C(=O)N(C[C@H]2CC[C@H](c3ccc(OC)c(C)c3)CC2)c2cccc(-c3cnn(C4CC4)c3)c2)CC1 [Compound 31, Methyl (2-((trans-4-((03-(1-cyclopropyl-1H-pyrazol-4-yl)phenyl)((trans-4-(4-methoxy-3-methylphenyl)cyclohexyl)methyl)carbamoyl)cyclohexyl)amino)-2-oxoethyl)carbamate]
14 | 0.25 to 1 µM | COc1ccc([C@H]2CC[C@H](CN(c3cccc(-c4cnn(C5CC5)c4)c3)C(=O)[C@H]3CC[C@H](NC(=O)CS(C)(=O)=O)CC3)CC2)cc1C [Compound 31.02]
15 | 0.25 to 1 µM | COc1ccc([C@H]2CC[C@H](CN(c3cccc(-c4cnn(C5CC5)c4)c3)C(=O)[C@H]3CC[C@H](NC(=O)C[S+](C)[O-])CC3)CC2)cc1C (stereo partly drawn) [Compound 31.04, trans-N-(3-(1-Cyclopropyl-1H-pyrazol-4-yl)phenyl)-N-((trans-4-(4-methoxy-3-methylphenyl)cyclohexyl)methyl)-4-(2-(methylsulfinyl)acetamido) cyclohexanecarboxamide]
16 | ≤ 0.25 µM | COC(=O)NCC(=O)N[C@H]1CC[C@H](C(=O)N(C[C@H]2CC[C@H](c3ccc(OC)c(C)c3)CC2)c2cccc(-c3cnc(C4CC4)s3)c2)CC1 [Compound 31.05, Methyl (2-((trans-4-((3-(2-cyclopropylthiazol-5-yl)phenyl)((trans-4-(4-methoxy-3-methylphenyl)cyclohexyl)methyl)carbamoyl)cyclohexyl)amino)-2-oxoethyl)carbamate]
17 | 0.25 to 1 µM | COc1ccc([C@H]2CC[C@H](CN(c3cccc(-c4cnc(C5CC5)s4)c3)C(=O)[C@H]3CC[C@H](NC(=O)CN)CC3)CC2)cc1C [Compound 31.07, trans-4-(2-Aminoacetamido)-N-(3-(2-cyclopropylthiazol-5-yl)phenyl)-N-((trans-4-(4-methoxy-3-methylphenyl)cyclohexyl)methyl) cyclohexanecarboxamide]
18 | ≤ 0.25 µM | CNCC(=O)N[C@H]1CC[C@H](C(=O)N(C[C@H]2CC[C@H](c3ccc(OC)c(C)c3)CC2)c2cccc(-c3cnc(C4CC4)s3)c2)CC1 [Compound 31.08, trans-N-(3-(2-Cyclopropylthiazol-5-yl)phenyl)-N-((trans-4-(4-methoxy-3-methylphenyl)cyclohexyl)methyl)-4-(2-(methylamino)acetamido) cyclohexanecarboxamide]
19 | ≤ 0.25 µM | COc1ccc([C@H]2CC[C@H](CN(c3cccc(-c4cnc(C5CC5)s4)c3)C(=O)[C@H]3CC[C@H](NC(=O)CS(C)(=O)=O)CC3)CC2)cc1C [Compound 31.12, trans-N-(3-(2-Cyclopropylthiazol-5-yl)phenyl)-N-((trans-4-(4-methoxy-3-methylphenyl)cyclohexyl)methyl)-4-(2-(methylsulfonyl)acetamido) cyclohexanecarboxamide]
20 | 0.25 to 1 µM | COc1ccc([C@H]2CC[C@H](CN(c3cccc(-c4cnc(C5CC5)s4)c3)C(=O)[C@H]3CC[C@H](NC(=O)CC[S+](C)[O-])CC3)CC2)cc1C (stereo partly drawn) [Compound 31.13, trans-N-(3-(2-Cyclopropylthiazol-5-yl)phenyl)-N-((trans-4-(4-methoxy-3-methylphenyl)cyclohexyl)methyl)-4-(3-(methylsulfinyl)propanamido) cyclohexanecarboxamide]
